This note sets out measurements from article PMC7413516, “Antidepressant-like activity and safety profile evaluation of 1H-imidazo[2,1-f]purine-2,4(3H,8H)-dione derivatives as 5-HT1A receptor partial agonists” (PLoS ONE, 2020).

For one experiment, the system named is mice. Nature of the experiment: Locomotor activity (Opto M3 activity monitor) in mice. In kind it is in vivo, Swiss albino mice. The settings on record: for effect on spontaneous locomotor activity, acute administration: 4 min period identical to FST, AZ-853 0.625, 1.25, 2.5 mg/kg, AZ-861 1.25 mg/kg, WAY-100635 0.3 mg/kg alone or combined; for Number of movements (individual animals): raw data. The source says: The investigated compounds AZ-853 (8-(4-(4-(2-fluorophenyl)piperazin-1-yl)butyl)-1,3-dimethyl-1H-imidazo[2,1-f]purine-2,4(3H,8H)-dione and AZ-861 (1,3-dimethyl-8-(4-(4-(3-(trifluoromethyl)phenyl)piperazin-1-yl)butyl)-1H-imidazo[2,1-f]purine-2,4(3H,8H)-dione) were synthesised in the Department of Medicinal Chemistry, Faculty of Pharmacy, Jagiellonian University, and their synthesis was described earlier. AZ-853 and AZ-861 were suspended in 1% aqueous solution of Tween 80, and WAY-100635 (Sigma, Germany) was dissolved in 0.9% saline. In acute experiments, the selected compounds AZ-853 (0.156–2.5 mg/kg) and AZ-861 (0.625–2.5 mg/kg) were injected i.p. once 60 min before tests, whereas WAY-100635 (0.3 mg/kg) was administered subcutaneously (s.c.) 45 min before the test. […] In chronic experiments, AZ-853 and AZ-861 were administered i.p. once a day (between 9:00 AM and 10:00 AM) for 16 consecutive days at the minimum active doses selected from FST experiment, i.e. 0.625 and 1.25 mg/kg, respectively. […]. The control groups received 1% aqueous solution of Tween 80.
Locomotor activity was recorded with an Opto M3 multi-channel activity monitor (MultiDevice Software v.1.3, Columbus Instruments). The Swiss albino mice were individually placed in plastic cages (220 × 120 × 130 mm) for 30 min habituation period, and then the crossings of each channel (ambulation) were counted from […] to 6 min, that is the time equal to the observation period in FST. The cages were cleaned up with 70% ethanol after each mouse.
The Swiss albino mice were used in the experiment. AZ-853 and AZ-861 were injected once daily for 16 consecutive days. […]. FST, as described earlier, was performed on the 14th day just before the next treatment. To ensure that the effects observed in FST are not the result of increased motility of animals, on the 13th day, just before the next administration, the locomotor activity was measured as described earlier, from 2 to 6 min after test start, i.e. in the period identical to the duration of FST. Blood and organ collection was performed on the 17th day at 24 h after the last dose and fasting.

The next experiment has as its target T1, human serotonin 5-HT1AR (Homo sapiens, UniProt P08908).
T1 sequence (P08908 1-422): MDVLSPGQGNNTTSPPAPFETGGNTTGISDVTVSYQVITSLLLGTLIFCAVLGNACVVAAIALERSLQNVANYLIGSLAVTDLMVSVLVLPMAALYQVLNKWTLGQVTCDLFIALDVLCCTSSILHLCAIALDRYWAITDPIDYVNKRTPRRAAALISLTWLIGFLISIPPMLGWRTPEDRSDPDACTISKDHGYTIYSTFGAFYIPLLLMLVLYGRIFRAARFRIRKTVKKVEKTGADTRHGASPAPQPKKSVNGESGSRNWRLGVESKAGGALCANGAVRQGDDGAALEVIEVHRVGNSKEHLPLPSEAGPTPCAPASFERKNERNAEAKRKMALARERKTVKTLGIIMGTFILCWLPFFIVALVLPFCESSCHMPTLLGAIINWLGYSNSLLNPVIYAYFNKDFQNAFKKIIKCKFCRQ
Nature of the experiment: cAMP inhibition (LANCE Ultra cAMP, forskolin-stimulated CHO-K1 cells). The conditions noted are these: for Emax: CHO-K1, read-out: Emax (%) ± SEM, agonist mode. On the technique in general: In TR-FRET formats the signal depends on donor and acceptor labels being close together.

The mark [1] stands for this setting: acute, 1.25 mg/kg i.p., measured from 3 to 6 min.

“And” between values parts separate entries of the source, which are not always exact repeats. Equal entries are not always repeated.

Regarding `Cn1c(=O)c2c(nc3n(CCCCN4CCN(c5ccccc5F)CC4)ccn23)n(C)c1=O` [AZ-853, 8-(4-(4-(2-fluorophenyl)piperazin-1-yl)butyl)-1,3-dimethyl-1H-imidazo[2,1-f]purine-2,4(3H,8H)-dione], the “effect on spontaneous locomotor activity, acute administration” value with mice was “did not change the behavior of the animals”. The “Number of movements (mean)” value with mice (acute, 0.625 mg/kg i.p., measured from 3 to 6 min) is 127.8; in the experiment with mice (setting [1]), 149.8; with mice (acute, 2.5 mg/kg i.p., measured from 3 to 6 min), 156.8; in the experiment on mice (repeated, 0.625 mg/kg, 24 h after 12th administration, during 4 min), 519.5. Also, the “Number of movements (individual animals)” value in the experiment on mice (acute, 0.625 mg/kg, 3 to 6 min) was 130 and 222 and 166 and 48 and 117 and 84; with mice (acute, 1.25 mg/kg, 3 to 6 min) it was 200 and 171 and 90 and 115 and 119 and 204; in the experiment with mice (acute, 2.5 mg/kg, 3 to 6 min), 116 and 258 and 120 and 200 and 205 and 42; in the experiment with mice (repeated, 0.625 mg/kg) it was 820 and 399 and 687 and 223 and 606 and 272 and 558 and 551 and 418 and 661. For the same compound, a half-maximal effect at human serotonin 5-HT1AR (EC50) was put at 0.0158 µM. Moreover, the maximal response (Emax) (usually the greatest response seen or fitted, relative to the assay's reference) at human serotonin 5-HT1AR stood at 43 ± 0.5%. In addition, at human serotonin 5-HT1AR (cAMP inhibition), the “lower efficacy than 5-HT” value came to 2.3 fold. Also, the “lower potency than 5-HT” value at human serotonin 5-HT1AR (cAMP inhibition) stood at 1.4 fold.
Regarding `Cn1c(=O)c2c(nc3n(CCCCN4CCN(c5cccc(C(F)(F)F)c5)CC4)ccn23)n(C)c1=O` [AZ-861, 1,3-dimethyl-8-(4-(4-(3-(trifluoromethyl)phenyl)piperazin-1-yl)butyl)-1H-imidazo[2,1-f]purine-2,4(3H,8H)-dione], the “effect on spontaneous locomotor activity, acute administration” value in the experiment with mice was “did not change the behavior of the animals”. Moreover, the “Number of movements (mean)” value with mice (setting [1]) amounted to 167.3; in the experiment on mice (repeated, 1.25 mg/kg, 24 h after 12th administration, during 4 min), 513.9. The “Number of movements (individual animals)” value with mice (acute, 1.25 mg/kg, 3 to 6 min) is 185 and 251 and 120 and 156 and 217 and 91 and 151; with mice (repeated, 1.25 mg/kg), 418 and 521 and 595 and 467 and 633 and 454 and 778 and 245. In addition, the response on human serotonin 5-HT1AR was half-maximal at 0.00437 µM (EC50). For the same compound, the Emax at human serotonin 5-HT1AR was found to be 76 ± 1.7%. The “higher potency than 5-HT” value on human serotonin 5-HT1AR (cAMP inhibition) is 2.6 fold. Further, at human serotonin 5-HT1AR (cAMP inhibition), the “lower efficacy than 5-HT” value was 1.3 fold.
